Assay results published in patent US10351546B2, “Pyridin-3-yl acetic acid derivatives as inhibitors of human immunodeficiency virus replication” (priority 2015, dated 2019).
pEC50: −log10 of the molar value. Where two headings read alike, the source gives them in different places.

Test system: NL-RLuc virus
Assay: Inhibition of HIV replication (NL-RLuc luciferase reporter virus in MT-2 cells)
Type: cell-based
Conditions: Human immunodeficiency virus 1, MT2, 120 h; for pEC50: read-out: Activity; for EC50: read-out: EC50 μM
Text: Inhibition of HIV replication: A recombinant NL-RLuc proviral clone was constructed in which a section of the nef gene form NL4-3 was replaced with the Renilla Luciferase gene. This virus is fully infectious and can undergo multiple cycles of replication in cell culture. In addition, the luciferous reporter provides a simple and easy method for quantitating the extent of virus growth and consequently, the antiviral activity of test compounds. The plasmid pNLRLuc contains the proviral NL-Rluc DNA cloned into pUC18 at the PvuII site. The NL-RLuc virus was prepared by transfection of 293T cells with the plasmid pNLRLuc. Transfections were performed using the LipofectAMINE PLUS kit form Invitrogen (Carlsbad, Calif.) according to the manufacturer and the virus generated was titered in MT-2 cells. For susceptibility analyses, the titrated virus was used to infect MT-2 cells in the presence of compound, and after 5 days of incubation, cells were processed and quantitated for virus growth by the amount of expressed luciferase. Assay media was RPMI 1640 supplemented with 10% heat inactivated fetal bovine serum (FBS), 100 units/ml penicillin G/100 units/ml streptomycin, 10 mM HEPES buffer pH 7.55 and 2 mM L-glutamine. The results form at least 2 experiments were used to calculate the EC50 values. Luciferase was quantitated using the Dual Luciferase kit form Promega (Madison, Wis.). Susceptibility of viruses to compounds was determined by incubation in the presence of serial dilutions of the compound. The 50% effective concentration (EC50) was calculated by using the exponential form of the median effect equation where (Fa)=1/[1+(ED50/drug conc.)^m](Johnson V A, Byington R T. Infectivity Assay. In Techniques in HIV Research. ed. Aldovini A, Walker B D. 71-76. New York: Stockton Press. 1990). Activity equal to A refers to a compound having an EC50≤100 nM, while B and C denote compounds having an EC50 between 100 nM and 1 uM (B) or >1 uM (C).

For Cc1nc(Cn2cnnc2C)c(-c2ccc(OCCc3ccc(F)cc3)cc2)c(N2CCC(C)(C)CC2)c1[C@H](OC(C)(C)C)C(=O)O [Example 33, (S)-2-(tert-butoxy)-2-(4-(4,4-dimethylpiperidin-1-yl)-5-(4-(4-fluorophenethoxy)phenyl)-2-methyl-6-((3-methyl-4H-1,2,4-triazol-4-yl)methyl)pyridin-3-yl)acetic acid], the pEC50 was > 7.00.

For Cc1nc(CN(C)C)c(-c2ccc(OCCc3ccc(F)cc3)cc2)c(N2CCC(C)(C)CC2)c1[C@H](OC(C)(C)C)C(=O)O [Example 65, (S)-2-(tert-Butoxy)-2-(6-((dimethylamino)methyl)-4-(4,4-dimethylpiperidin-1-yl)-5-(4-(4-fluorophenethoxy)phenyl)-2-methylpyridin-3-yl)acetic acid], the pEC50 was > 7.00.

Cc1cc(F)ccc1CN1CCc2cc(-c3c(CN4CCCC(F)C4)nc(C)c([C@H](OC(C)(C)C)C(=O)O)c3N3CCC(C)(C)CC3)ccc2C1 (stereo partly drawn) [Example 131, (2S)-2-(tert-Butoxy)-2-(4-(4,4-dimethylpiperidin-1-yl)-5-(2-(4-fluoro-2-methylbenzyl)-1,2,3,4-tetrahydroisoquinolin-6-yl)-6-((3-fluoropiperidin-1-yl)methyl)-2-methylpyridin-3-yl)acetic acid] was tested, and the pEC50 was > 7.00.

Cc1nc(CN2[C@@H]3CC[C@H]2CN(C)C3)c(-c2ccc(OCCc3ccc(F)cc3)cc2)c(N2CCC(C)(C)CC2)c1[C@H](OC(C)(C)C)C(=O)O [Example 96, (S)-2-(tert-butoxy)-2-(4-(4,4-dimethylpiperidin-1-yl)-5-(4-(4-fluorophenethoxy)phenyl)-2-methyl-6-(((1R,5S)-3-methyl-3,8-diazabicyclo[3.2.1]octan-8-yl)methyl)pyridin-3-yl)acetic acid] was tested, and the pEC50 was > 7.00.

With C#Cc1nc(C)c([C@H](OC(C)(C)C)C(=O)O)c(N2CCC(C)(C)CC2)c1-c1ccc(OCCc2ccc(F)cc2)cc1 [Example 161, (S)-2-(tert-Butoxy)-2-(4-(4,4-dimethylpiperidin-1-yl)-6-ethynyl-5-(4-(4-fluorophenethoxy)phenyl)-2-methylpyridin-3-yl)acetic acid] the pEC50 was > 7.00.

For Cc1nc(-c2nc3ccc(Cl)cc3[nH]2)c(-c2ccc(OCCc3ccc(F)cc3)cc2)c(N2CCC(C)(C)CC2)c1[C@H](OC(C)(C)C)C(=O)O [Example 44, (S)-2-(tert-Butoxy)-2-(6-(6-chloro-1H-benzo[d]imidazol-2-yl)-4-(4,4-dimethylpiperidin-1-yl)-5-(4-(4-fluorophenethoxy)phenyl)-2-methylpyridin-3-yl)acetic acid], the pEC50 was > 7.00.

With Cc1nc(COCCCOCc2ccccc2)c([C@H](OC(C)(C)C)C(=O)O)c(N2CCC(C)(C)CC2)c1-c1ccc(OCCc2ccc(F)cc2)cc1 [Example 111, (S)-2-(2-((3-(Benzyloxy)propoxy)methyl)-4-(4,4-dimethylpiperidin-1-yl)-5-(4-(4-fluorophenethoxy)phenyl)-6-methylpyridin-3-yl)-2-(tert-butoxy)acetic acid] the pEC50 was > 7.00.

Cc1nnc(C(=O)N(C)Cc2nc(C)c([C@H](OC(C)(C)C)C(=O)O)c(N3CCC(C)(C)CC3)c2-c2ccc(OCCc3ccc(F)cc3)cc2)o1 [Example 103, (S)-2-(tert-butoxy)-2-(6-((N,5-dimethyl-1,3,4-oxadiazole-2-carboxamido)methyl)-4-(4,4-dimethylpiperidin-1-yl)-5-(4-(4-fluorophenethoxy)phenyl)-2-methylpyridin-3-yl)acetic acid] was tested, and the pEC50 was > 7.00.

In the case of COc1nc(C)c([C@H](OC(C)(C)C)C(=O)O)c(N2CCC(C)(C)CC2)c1-c1ccc(OCCc2ccc(F)cc2)cc1 (single isomer, unassigned) [Example 51], the pEC50 was > 7.00.

In the case of Cc1nc(N2CCCCC2)c(-c2ccc(OCCc3ccc(F)cc3)cc2)c(N2CCC(C)(C)CC2)c1[C@H](OC(C)(C)C)C(=O)O [Example 53, (S)-2-(tert-Butoxy)-2-(4-(4,4-dimethylpiperidin-1-yl)-5-(4-(4-fluorophenethoxy)phenyl)-2-methyl-6-(piperidin-1-yl)pyridin-3-yl)acetic acid], the pEC50 was > 7.00.

In the case of Cc1nc(CNC=O)c(-c2ccc(OCCc3ccc(F)cc3)cc2)c(N2CCC(C)(C)CC2)c1[C@H](OC(C)(C)C)C(=O)O [Example 107, (S)-2-(tert-Butoxy)-2-(4-(4,4-dimethylpiperidin-1-yl)-5-(4-(4-fluorophenethoxy)phenyl)-6-(formamidomethyl)-2-methylpyridin-3-yl)acetic acid], the pEC50 was > 7.00.

In the case of Cc1cc(F)ccc1CN1CCc2cc(-c3c(N)nc(C)c([C@H](OC(C)(C)C)C(=O)O)c3N3CCC(C)(C)CC3)ccc2C1 [Example 147, (S)-2-(6-Amino-4-(4,4-dimethylpiperidin-1-yl)-5-(2-(4-fluoro-2-methylbenzyl)-1,2,3,4-tetrahydroisoquinolin-6-yl)-2-methylpyridin-3-yl)-2-(tert-butoxy)acetic acid], the pEC50 was > 7.00.

With Cc1nc(CN2CCN(C)CC2)c(-c2ccc(OCCc3ccc(F)cc3)cc2)c(N2CCC(C)(C)CC2)c1[C@H](OC(C)(C)C)C(=O)O [Example 94, (S)-2-(tert-Butoxy)-2-(4-(4,4-dimethylpiperidin-1-yl)-5-(4-(4-fluorophenethoxy)phenyl)-2-methyl-6-((4-methylpiperazin-1-yl)methyl)pyridin-3-yl)acetic acid] the pEC50 was > 7.00.

Cc1nc(CNCC2CCOCC2)c(-c2ccc(OCCc3ccc(F)cc3)cc2)c(N2CCC(C)(C)CC2)c1[C@H](OC(C)(C)C)C(=O)O [Example 67, (S)-2-(tert-Butoxy)-2-(4-(4,4-dimethylpiperidin-1-yl)-5-(4-(4-fluorophenethoxy)phenyl)-2-methyl-6-((((tetrahydro-2H-pyran-4-yl)methyl)amino)methyl)pyridin-3-yl)acetic acid] was tested, and the pEC50 was > 7.00.

Cc1nc(CC2=CCCCC2)c(-c2ccc(OCCc3ccc(F)cc3)cc2)c(N2CCC(C)(C)CC2)c1[C@H](OC(C)(C)C)C(=O)O [Example 171, (S)-2-(tert-Butoxy)-2-(6-(cyclohex-1-en-1-ylmethyl)-4-(4,4-dimethylpiperidin-1-yl)-5-(4-(4-fluorophenethoxy)phenyl)-2-methylpyridin-3-yl)acetic acid] was tested, and the pEC50 was > 7.00.

Cc1nc(CNC(C)C)c(-c2ccc(OCCc3ccc(F)cc3)cc2)c(N2CCC(C)(C)CC2)c1[C@H](OC(C)(C)C)C(=O)O [Example 66, (S)-2-(tert-Butoxy)-2-(4-(4,4-dimethylpiperidin-1-yl)-5-(4-(4-fluorophenethoxy)phenyl)-6-((isopropylamino)methyl)-2-methylpyridin-3-yl)acetic acid] was tested, and the pEC50 was > 7.00.

With CC(=O)NCc1nc(C)c([C@H](OC(C)(C)C)C(=O)O)c(N2CCC(C)(C)CC2)c1-c1ccc2c(c1)CCN(Cc1ccc(F)cc1C)C2 [Example 140, (S)-2-(6-(Acetamidomethyl)-4-(4,4-dimethylpiperidin-1-yl)-5-(2-(4-fluoro-2-methylbenzyl)-1,2,3,4-tetrahydroisoquinolin-6-yl)-2-methylpyridin-3-yl)-2-(tert-butoxy)acetic acid] the pEC50 was > 7.00.

With Cc1nc(CC2CCC(C)(C)CC2)c(-c2ccc(OCCc3ccc(F)cc3)cc2)c(N2CCC(C)(C)CC2)c1[C@H](OC(C)(C)C)C(=O)O [Example 173, (S)-2-(tert-Butoxy)-2-(6-((4,4-dimethylcyclohexyl)methyl)-4-(4,4-dimethylpiperidin-1-yl)-5-(4-(4-fluorophenethoxy)phenyl)-2-methylpyridin-3-yl)acetic acid] the pEC50 was > 7.00 and the EC50 was 0.035 µM.

In the case of CCOCCOCc1nc(C)c([C@H](OC(C)(C)C)C(=O)O)c(N2CCC(C)(C)CC2)c1-c1ccc(OCCc2ccc(F)cc2)cc1 [Example 10, (S)-2-(tert-Butoxy)-2-(4-(4,4-dimethylpiperidin-1-yl)-6-((2-ethoxyethoxy)methyl)-5-(4-(4-fluorophenethoxy)phenyl)-2-methylpyridin-3-yl)acetic acid], the pEC50 was > 7.00.

With Cc1nc(COCC2COC2)c([C@H](OC(C)(C)C)C(=O)O)c(N2CCC(C)(C)CC2)c1-c1ccc(OCCc2ccc(F)cc2)cc1 [Example 109, (S)-2-(tert-Butoxy)-2-(4-(4,4-dimethylpiperidin-1-yl)-5-(4-(4-fluorophenethoxy)phenyl)-6-methyl-2-((oxetan-3-ylmethoxy)methyl)pyridin-3-yl)acetic acid] the pEC50 was > 7.00 and the EC50 was 0.005 µM.

Cc1cc(F)ccc1CN1CCc2cc(-c3c(COCC4CCOCC4)nc(C)c([C@H](OC(C)(C)C)C(=O)O)c3N3CCC(C)(C)CC3)ccc2C1 [Example 159, (S)-2-(tert-Butoxy)-2-(4-(4,4-dimethylpiperidin-1-yl)-5-(2-(4-fluoro-2-methylbenzyl)-1,2,3,4-tetrahydroisoquinolin-6-yl)-2-methyl-6-(((tetrahydro-2H-pyran-4-yl)methoxy)methyl)pyridin-3-yl)acetic acid] was tested, and the pEC50 was > 7.00.
